Measured values reported in patent publication EP4745137A1 (Gluetacs Therapeutics (Shanghai) Co., Ltd., priority 2023, dated 2025).

Assays:
WEE1 = biological target: T1, WEE1 (Homo sapiens, UniProt P30291+Q96SW2); experiment: Western-blot assay of substrate protein degradation in hPBMCs, WEE1; assay type: cell-based; details: 24 hours of compound treatment, 50 nM and 500 nM tested (concentration behind the class not stated)
T1 construct: endogenous in cells; host or cells: hPBMCs (Milecell Biotechnologies)

IKZF1 = biological target: T2, IKZF1 (Homo sapiens, UniProt Q13422+Q96SW2); experiment: Western-blot assay of substrate protein degradation in hPBMCs, IKZF1; assay type: cell-based; details: 24 hours of compound treatment, 50 nM and 500 nM tested (concentration behind the class not stated)
T2 construct: endogenous in cells; host or cells: hPBMCs (Milecell Biotechnologies)

IKZF2 = biological target: T3, IKZF2 (Homo sapiens, UniProt Q96SW2+Q9UKS7); experiment: Western-blot assay of substrate protein degradation in hPBMCs, IKZF2; assay type: cell-based; details: 24 hours of compound treatment, 50 nM and 500 nM tested (concentration behind the class not stated)
T3 construct: endogenous in cells; host or cells: hPBMCs (Milecell Biotechnologies)

IKZF3 = biological target: T4, IKZF3 (Homo sapiens, UniProt Q96SW2+Q9UKT9); experiment: Western-blot assay of substrate protein degradation in hPBMCs, IKZF3; assay type: cell-based; details: 24 hours of compound treatment, 50 nM and 500 nM tested (concentration behind the class not stated)
T4 construct: endogenous in cells; host or cells: hPBMCs (Milecell Biotechnologies)

CK1α = biological target: T5, CK1α (Homo sapiens, UniProt P48729+Q96SW2); experiment: Western-blot assay of substrate protein degradation in hPBMCs, CK1α; assay type: cell-based; details: 24 hours of compound treatment, 50 nM and 500 nM tested (concentration behind the class not stated)
T5 construct: endogenous in cells; host or cells: hPBMCs (Milecell Biotechnologies)

GSPT1 = biological target: T6, GSPT1 (Homo sapiens, UniProt P15170+Q96SW2); experiment: Western-blot assay of substrate protein degradation in hPBMCs, GSPT1; assay type: cell-based; details: 24 hours of compound treatment, 50 nM and 500 nM tested (concentration behind the class not stated)
T6 construct: endogenous in cells; host or cells: hPBMCs (Milecell Biotechnologies)

[1] = biological target: T7, human Cereblon WT GST-tagged protein (Homo sapiens, UniProt Q96SW2); experiment: CRBN-binding affinity by HTRF (CEREBLON BINDING kit); details: HTRF inhibitory activity, CEREBLON BINDING kit; read-out: HTRF IC50
T7 construct: purchased CISBIO 64BDCRBNPEH
T7 sequence (Q96SW2 whole entry): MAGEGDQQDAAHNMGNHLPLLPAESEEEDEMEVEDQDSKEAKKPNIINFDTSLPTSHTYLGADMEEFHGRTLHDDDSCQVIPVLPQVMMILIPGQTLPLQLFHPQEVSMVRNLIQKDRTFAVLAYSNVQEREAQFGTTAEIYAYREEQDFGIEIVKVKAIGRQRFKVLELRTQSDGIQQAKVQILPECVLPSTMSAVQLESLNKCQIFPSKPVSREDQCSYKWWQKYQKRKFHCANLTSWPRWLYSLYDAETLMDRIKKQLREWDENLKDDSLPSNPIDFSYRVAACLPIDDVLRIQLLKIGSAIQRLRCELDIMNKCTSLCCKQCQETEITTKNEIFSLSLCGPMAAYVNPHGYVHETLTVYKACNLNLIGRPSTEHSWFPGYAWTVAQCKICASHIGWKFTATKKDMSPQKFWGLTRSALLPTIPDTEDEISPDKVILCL

T3 sequence (Q9UKS7 whole entry): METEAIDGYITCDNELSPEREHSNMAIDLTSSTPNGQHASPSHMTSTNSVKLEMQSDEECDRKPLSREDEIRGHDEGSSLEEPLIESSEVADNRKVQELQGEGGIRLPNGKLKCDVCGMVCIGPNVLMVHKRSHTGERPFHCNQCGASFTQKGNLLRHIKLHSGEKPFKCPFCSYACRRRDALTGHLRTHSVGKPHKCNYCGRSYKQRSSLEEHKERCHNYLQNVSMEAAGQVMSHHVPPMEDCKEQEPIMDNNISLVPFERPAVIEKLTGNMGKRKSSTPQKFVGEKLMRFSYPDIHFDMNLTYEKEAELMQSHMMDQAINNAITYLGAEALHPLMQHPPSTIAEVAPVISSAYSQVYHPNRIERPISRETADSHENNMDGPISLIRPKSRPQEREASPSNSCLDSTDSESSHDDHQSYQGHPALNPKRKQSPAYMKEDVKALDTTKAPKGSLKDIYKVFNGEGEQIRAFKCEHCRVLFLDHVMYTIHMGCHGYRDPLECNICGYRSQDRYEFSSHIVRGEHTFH
T3 sequence (Q96SW2 whole entry): as the sequence (Q96SW2 whole entry) above
T3 sequence (Q16531 whole entry partner): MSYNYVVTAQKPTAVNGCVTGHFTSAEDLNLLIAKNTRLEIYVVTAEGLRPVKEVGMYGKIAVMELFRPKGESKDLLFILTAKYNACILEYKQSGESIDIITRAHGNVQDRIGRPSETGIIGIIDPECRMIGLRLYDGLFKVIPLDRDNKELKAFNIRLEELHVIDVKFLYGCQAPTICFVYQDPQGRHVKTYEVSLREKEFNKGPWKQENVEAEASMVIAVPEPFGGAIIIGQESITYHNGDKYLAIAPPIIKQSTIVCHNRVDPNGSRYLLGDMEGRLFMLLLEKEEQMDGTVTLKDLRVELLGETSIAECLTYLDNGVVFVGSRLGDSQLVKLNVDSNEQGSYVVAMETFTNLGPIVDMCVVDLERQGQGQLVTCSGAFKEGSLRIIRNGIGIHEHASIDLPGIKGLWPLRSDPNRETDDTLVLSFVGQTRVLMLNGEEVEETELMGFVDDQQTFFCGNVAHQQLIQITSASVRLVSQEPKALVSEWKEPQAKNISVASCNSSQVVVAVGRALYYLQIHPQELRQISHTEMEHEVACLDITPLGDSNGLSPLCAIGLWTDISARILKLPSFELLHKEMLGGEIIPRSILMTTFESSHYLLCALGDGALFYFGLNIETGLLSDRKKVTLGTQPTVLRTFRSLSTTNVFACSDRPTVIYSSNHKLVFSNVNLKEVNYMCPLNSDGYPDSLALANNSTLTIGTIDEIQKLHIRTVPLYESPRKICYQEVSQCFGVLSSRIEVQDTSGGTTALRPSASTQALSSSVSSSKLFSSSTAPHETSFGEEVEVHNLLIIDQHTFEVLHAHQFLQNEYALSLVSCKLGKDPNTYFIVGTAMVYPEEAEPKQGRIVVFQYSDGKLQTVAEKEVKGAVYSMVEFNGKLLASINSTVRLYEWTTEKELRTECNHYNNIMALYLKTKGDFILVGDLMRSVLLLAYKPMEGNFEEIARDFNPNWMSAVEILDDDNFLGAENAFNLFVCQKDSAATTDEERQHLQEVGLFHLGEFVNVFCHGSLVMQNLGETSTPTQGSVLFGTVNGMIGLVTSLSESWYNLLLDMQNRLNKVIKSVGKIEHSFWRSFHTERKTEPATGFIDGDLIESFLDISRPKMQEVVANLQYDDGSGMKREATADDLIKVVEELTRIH
T2 sequence (Q13422 whole entry): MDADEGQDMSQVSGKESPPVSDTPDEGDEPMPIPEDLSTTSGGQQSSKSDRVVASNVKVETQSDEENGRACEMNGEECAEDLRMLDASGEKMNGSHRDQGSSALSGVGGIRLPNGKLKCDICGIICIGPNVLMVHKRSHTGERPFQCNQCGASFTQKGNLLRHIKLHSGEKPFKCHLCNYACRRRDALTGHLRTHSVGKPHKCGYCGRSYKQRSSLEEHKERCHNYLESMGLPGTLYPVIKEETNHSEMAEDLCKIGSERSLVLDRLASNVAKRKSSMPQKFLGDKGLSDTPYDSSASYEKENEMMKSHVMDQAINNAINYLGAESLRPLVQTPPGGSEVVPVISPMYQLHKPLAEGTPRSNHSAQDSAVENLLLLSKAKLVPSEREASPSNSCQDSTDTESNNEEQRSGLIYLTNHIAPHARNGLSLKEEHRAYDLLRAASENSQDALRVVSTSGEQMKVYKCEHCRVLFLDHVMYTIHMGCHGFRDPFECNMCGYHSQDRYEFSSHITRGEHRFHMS
T2 sequence (Q96SW2 whole entry): as the sequence (Q96SW2 whole entry) above
T2 sequence (Q16531 whole entry partner): as the sequence (Q16531 whole entry partner) above
T1 sequence (P30291 whole entry): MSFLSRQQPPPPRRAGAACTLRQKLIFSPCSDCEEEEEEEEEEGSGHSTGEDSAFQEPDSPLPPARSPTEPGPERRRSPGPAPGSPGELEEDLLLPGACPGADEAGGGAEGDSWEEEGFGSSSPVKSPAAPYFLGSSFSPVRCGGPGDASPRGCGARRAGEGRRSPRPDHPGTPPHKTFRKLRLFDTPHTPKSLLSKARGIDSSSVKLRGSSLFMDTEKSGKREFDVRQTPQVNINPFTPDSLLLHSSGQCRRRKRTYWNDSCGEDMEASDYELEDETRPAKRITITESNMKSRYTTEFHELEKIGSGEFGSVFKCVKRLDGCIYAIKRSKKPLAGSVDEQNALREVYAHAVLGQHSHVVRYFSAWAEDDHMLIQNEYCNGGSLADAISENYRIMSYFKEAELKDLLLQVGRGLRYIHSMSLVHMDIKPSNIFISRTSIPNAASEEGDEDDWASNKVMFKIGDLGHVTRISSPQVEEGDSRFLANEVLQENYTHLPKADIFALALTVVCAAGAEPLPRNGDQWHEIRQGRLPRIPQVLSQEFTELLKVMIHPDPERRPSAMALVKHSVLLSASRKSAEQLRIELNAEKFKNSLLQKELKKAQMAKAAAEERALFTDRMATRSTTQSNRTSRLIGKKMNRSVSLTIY
T1 sequence (Q96SW2 whole entry): as the sequence (Q96SW2 whole entry) above
T1 sequence (Q16531 whole entry partner): as the sequence (Q16531 whole entry partner) above
T4 sequence (Q9UKT9 whole entry): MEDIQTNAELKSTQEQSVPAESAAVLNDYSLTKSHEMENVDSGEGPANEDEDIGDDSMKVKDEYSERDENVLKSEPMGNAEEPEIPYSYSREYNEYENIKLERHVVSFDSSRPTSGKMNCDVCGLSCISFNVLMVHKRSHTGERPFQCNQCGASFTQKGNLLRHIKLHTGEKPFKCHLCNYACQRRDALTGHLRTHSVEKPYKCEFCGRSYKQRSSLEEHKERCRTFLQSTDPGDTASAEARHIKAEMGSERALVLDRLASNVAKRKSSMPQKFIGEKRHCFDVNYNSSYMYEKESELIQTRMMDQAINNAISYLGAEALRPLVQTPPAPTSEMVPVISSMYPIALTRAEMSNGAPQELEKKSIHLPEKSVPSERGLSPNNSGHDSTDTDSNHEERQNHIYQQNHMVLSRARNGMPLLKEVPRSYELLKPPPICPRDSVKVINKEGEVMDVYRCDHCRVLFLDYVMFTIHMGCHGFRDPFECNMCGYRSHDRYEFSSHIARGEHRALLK
T4 sequence (Q96SW2 whole entry): as the sequence (Q96SW2 whole entry) above
T4 sequence (Q16531 whole entry partner): as the sequence (Q16531 whole entry partner) above
T5 sequence (P48729 whole entry): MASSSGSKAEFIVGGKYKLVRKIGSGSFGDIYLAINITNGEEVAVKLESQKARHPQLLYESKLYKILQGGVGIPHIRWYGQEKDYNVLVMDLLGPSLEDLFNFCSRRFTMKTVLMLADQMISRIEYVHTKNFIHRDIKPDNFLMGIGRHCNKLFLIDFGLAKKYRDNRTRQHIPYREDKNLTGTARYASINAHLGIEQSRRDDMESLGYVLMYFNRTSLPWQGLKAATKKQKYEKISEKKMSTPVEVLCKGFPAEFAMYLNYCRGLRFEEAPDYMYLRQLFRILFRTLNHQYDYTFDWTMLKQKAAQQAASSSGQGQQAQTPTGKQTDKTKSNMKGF
T5 sequence (Q96SW2 whole entry): as the sequence (Q96SW2 whole entry) above
T5 sequence (Q16531 whole entry partner): as the sequence (Q16531 whole entry partner) above

CC(C)c1cc2c(N3CCN(Cc4ccc5c(c4)C(=O)N(C4CCC(=O)NC4=O)C5=O)CC3)ncnc2s1 (stereo not shown) [GT-06306, 2-(2,6-dioxopiperidin-3-yl)-5-((4-(6-isopropylthieno[2,3-d]pyrimidin-4-yl)piperazin-1-yl)methyl)isoindoline-1,3-dione]
Weel substrate protein remaining % (WEE1): B (80%< substrate protein remaining %≤ 100%) | IKZF 1 substrate protein remaining % (IKZF1): A (0% ≤ substrate protein remaining % ≤ 80%) | IKZF2 substrate protein remaining % (IKZF2): A (0% ≤ substrate protein remaining % ≤ 80%) | IKZF3 substrate protein remaining % (IKZF3): A (0% ≤ substrate protein remaining % ≤ 80%) | CK1a substrate protein remaining % (CK1α): A (0% ≤ substrate protein remaining % ≤ 80%) | GSPT1 substrate protein remaining % (GSPT1): A (0% ≤ substrate protein remaining % ≤ 80%) | IC50 [1]: 1.5 to 1.9 µM

O=C1CCC(N2C(=O)c3ccc(CN4CCN(c5ncnc6sc(Br)cc56)CC4)cc3C2=O)C(=O)N1 (stereo not shown) [GT-06309, 5-((4-(6-bromothieno[2,3-d]pyrimidin-4-yl)piperazin-1-yl)methyl)-2-(2,6-dioxopiperidin-3-yl)isoindoline-1,3-dione]
Weel substrate protein remaining % (WEE1): B (80%< substrate protein remaining %≤ 100%) | IKZF 1 substrate protein remaining % (IKZF1): A (0% ≤ substrate protein remaining % ≤ 80%) | IKZF2 substrate protein remaining % (IKZF2): A (0% ≤ substrate protein remaining % ≤ 80%) | IKZF3 substrate protein remaining % (IKZF3): A (0% ≤ substrate protein remaining % ≤ 80%) | CK1a substrate protein remaining % (CK1α): B (80%< substrate protein remaining %≤ 100%) | GSPT1 substrate protein remaining % (GSPT1): B (80%< substrate protein remaining %≤ 100%) | IC50 [1]: 1.5 to 1.9 µM

Cc1nc(N2CCN(Cc3ccc4c(c3)C(=O)N(C3CCC(=O)NC3=O)C4=O)CC2)c2c3c(sc2n1)CCCC3 (stereo not shown) [GT-06348, 2-(2,6-dioxopiperidin-3-yl)-5-((4-(2-methyl-5,6,7,8-tetrahydrobenzo[4,5]thieno[2,3-d]pyrimidin-4-yl)piperazin-1-yl)methyl)isoindoline-1,3-dione]
Weel substrate protein remaining % (WEE1): A (0% ≤ substrate protein remaining % ≤ 80%) | IKZF 1 substrate protein remaining % (IKZF1): A (0% ≤ substrate protein remaining % ≤ 80%) | IKZF2 substrate protein remaining % (IKZF2): A (0% ≤ substrate protein remaining % ≤ 80%) | IKZF3 substrate protein remaining % (IKZF3): A (0% ≤ substrate protein remaining % ≤ 80%) | CK1a substrate protein remaining % (CK1α): A (0% ≤ substrate protein remaining % ≤ 80%) | GSPT1 substrate protein remaining % (GSPT1): A (0% ≤ substrate protein remaining % ≤ 80%) | IC50 [1]: 1 to 1.5 µM

O=C1CCC(N2C(=O)c3ccc(CN4CCN(c5ncnc6sc7c(c56)CCCC7)CC4)cc3C2=O)C(=O)N1 (stereo not shown) [GT-06564, 2-(2,6-dioxopiperidin-3-yl)-5-((4-(5,6,7,8-tetrahydrobenzo[4,5]thieno[2,3-d]pyrimidin-4-yl)piperazin-1-yl)methyl)isoindoline-1,3-dione]
Weel substrate protein remaining % (WEE1): A (0% ≤ substrate protein remaining % ≤ 80%) | IKZF 1 substrate protein remaining % (IKZF1): A (0% ≤ substrate protein remaining % ≤ 80%) | IKZF2 substrate protein remaining % (IKZF2): A (0% ≤ substrate protein remaining % ≤ 80%) | IKZF3 substrate protein remaining % (IKZF3): A (0% ≤ substrate protein remaining % ≤ 80%) | CK1a substrate protein remaining % (CK1α): A (0% ≤ substrate protein remaining % ≤ 80%) | GSPT1 substrate protein remaining % (GSPT1): A (0% ≤ substrate protein remaining % ≤ 80%) | IC50 [1]: 0.5 to 1 µM

O=C1CCC(N2C(=O)c3ccc(CN4CCN(c5ncnc6sc7c(c56)CCC7)CC4)cc3C2=O)C(=O)N1 (stereo not shown) [GT-06565, 5-((4-(6,7-dihydro-5H-cyclopenta[4,5]thieno[2,3-d]pyrimidin-4-yl)piperazin-1-yl)methyl)-2-(2,6-dioxopiperidin-3-yl)isoindoline-1,3-dione]
Weel substrate protein remaining % (WEE1): A (0% ≤ substrate protein remaining % ≤ 80%) | IKZF 1 substrate protein remaining % (IKZF1): A (0% ≤ substrate protein remaining % ≤ 80%) | IKZF2 substrate protein remaining % (IKZF2): A (0% ≤ substrate protein remaining % ≤ 80%) | IKZF3 substrate protein remaining % (IKZF3): A (0% ≤ substrate protein remaining % ≤ 80%) | CK1a substrate protein remaining % (CK1α): A (0% ≤ substrate protein remaining % ≤ 80%) | GSPT1 substrate protein remaining % (GSPT1): A (0% ≤ substrate protein remaining % ≤ 80%) | IC50 [1]: 1 to 1.5 µM

Cc1nc(N2CCN(Cc3ccc4c(c3)C(=O)N(C3CCC(=O)NC3=O)C4=O)CC2)c2c3c(sc2n1)CCC3 (stereo not shown) [GT-06566, 2-(2,6-dioxopiperidin-3-yl)-5-((4-(2-methyl-6,7-dihydro-5H-cyclopenta[4,5]thieno[2,3-d]pyrimidin-4-yl)piperazin-1-yl)methyl)isoindoline-1,3-dione]
Weel substrate protein remaining % (WEE1): A (0% ≤ substrate protein remaining % ≤ 80%) | IKZF 1 substrate protein remaining % (IKZF1): A (0% ≤ substrate protein remaining % ≤ 80%) | IKZF2 substrate protein remaining % (IKZF2): A (0% ≤ substrate protein remaining % ≤ 80%) | IKZF3 substrate protein remaining % (IKZF3): A (0% ≤ substrate protein remaining % ≤ 80%) | CK1a substrate protein remaining % (CK1α): A (0% ≤ substrate protein remaining % ≤ 80%) | GSPT1 substrate protein remaining % (GSPT1): A (0% ≤ substrate protein remaining % ≤ 80%) | IC50 [1]: 0.5 to 1 µM

O=C1CCC(N2C(=O)c3ccc(CN4CCN(c5ncc6ccsc6n5)CC4)cc3C2=O)C(=O)N1 (stereo not shown) [GT-06567, 2-(2,6-dioxopiperidin-3-yl)-5-((4-(thieno[2,3-d]pyrimidin-2-yl)piperazin-1-yl)methyl)isoindoline-1,3-dione]
Weel substrate protein remaining % (WEE1): A (0% ≤ substrate protein remaining % ≤ 80%) | IKZF 1 substrate protein remaining % (IKZF1): B (80%< substrate protein remaining %≤ 100%) | IKZF2 substrate protein remaining % (IKZF2): B (80%< substrate protein remaining %≤ 100%) | IKZF3 substrate protein remaining % (IKZF3): B (80%< substrate protein remaining %≤ 100%) | CK1a substrate protein remaining % (CK1α): A (0% ≤ substrate protein remaining % ≤ 80%) | GSPT1 substrate protein remaining % (GSPT1): A (0% ≤ substrate protein remaining % ≤ 80%) | IC50 [1]: 1 to 1.5 µM

Cc1sc2ncnc(C3CCN(Cc4ccc5c(c4)C(=O)N(C4CCC(=O)NC4=O)C5=O)CC3)c2c1C (stereo not shown) [GT-06593, 5-((4-(5,6-dimethylthieno[2,3-d]pyrimidin-4-yl)piperidin-1-yl)methyl)-2-(2,6-dioxopiperidin-3-yl)isoindoline-1,3-dione]
Weel substrate protein remaining % (WEE1): A (0% ≤ substrate protein remaining % ≤ 80%) | IKZF 1 substrate protein remaining % (IKZF1): A (0% ≤ substrate protein remaining % ≤ 80%) | IKZF2 substrate protein remaining % (IKZF2): A (0% ≤ substrate protein remaining % ≤ 80%) | IKZF3 substrate protein remaining % (IKZF3): A (0% ≤ substrate protein remaining % ≤ 80%) | CK1a substrate protein remaining % (CK1α): B (80%< substrate protein remaining %≤ 100%) | GSPT1 substrate protein remaining % (GSPT1): A (0% ≤ substrate protein remaining % ≤ 80%) | IC50 [1]: 1.5 to 1.9 µM

O=C1CCC(N2C(=O)c3ccc(CN4CC=C(c5c[nH]c6cc(F)ccc56)CC4)cc3C2=O)C(=O)N1 (stereo not shown) [GT-06634, 2-(2,6-dioxopiperidin-3-yl)-5-((4-(6-fluoro-1H-indol-3-yl)-3,6-dihydropyridin-1(2H)-yl)methyl)isoindoline-1,3-dione]
Weel substrate protein remaining % (WEE1): A (0% ≤ substrate protein remaining % ≤ 80%) | IKZF 1 substrate protein remaining % (IKZF1): B (80%< substrate protein remaining %≤ 100%) | IKZF2 substrate protein remaining % (IKZF2): A (0% ≤ substrate protein remaining % ≤ 80%) | IKZF3 substrate protein remaining % (IKZF3): A (0% ≤ substrate protein remaining % ≤ 80%) | CK1a substrate protein remaining % (CK1α): A (0% ≤ substrate protein remaining % ≤ 80%) | GSPT1 substrate protein remaining % (GSPT1): A (0% ≤ substrate protein remaining % ≤ 80%) | IC50 [1]: 0.5 to 1 µM

Cc1nc(C2CCN(Cc3ccc4c(c3)C(=O)N(C3CCC(=O)NC3=O)C4=O)CC2)c2c(-c3ccccc3)csc2n1 (stereo not shown) [GT-06646, 2-(2,6-dioxopiperidin-3-yl)-5-((4-(2-methyl-5-phenylthieno[2,3-d]pyrimidin-4-yl)piperidin-1-yl)methyl)isoindoline-1,3-dione]
Weel substrate protein remaining % (WEE1): B (80%< substrate protein remaining %≤ 100%) | IKZF 1 substrate protein remaining % (IKZF1): B (80%< substrate protein remaining %≤ 100%) | IKZF2 substrate protein remaining % (IKZF2): B (80%< substrate protein remaining %≤ 100%) | IKZF3 substrate protein remaining % (IKZF3): B (80%< substrate protein remaining %≤ 100%) | CK1a substrate protein remaining % (CK1α): B (80%< substrate protein remaining %≤ 100%) | GSPT1 substrate protein remaining % (GSPT1): A (0% ≤ substrate protein remaining % ≤ 80%) | IC50 [1]: 0.5 to 1 µM
